Marks after values point to notes of the source that are not given here.
Experiments:
[1] = test system: Caco-2 cells; assay: Cytotoxicity of aspalathin on Caco-2 cells (Vialight plus kit); type: cell-based, human; details: HBSS buffer pH 6.0, apical side; 2 h exposure
Description: Supplementary material for:
Intestinal Transport Characteristics and Metabolism of C-Glucosyl Dihydrochalcone, Aspalathin
Sandra Bowles 1,*, Elizabeth Joubert 2,3, Dalene de Beer 2,3, Johan Louw 1,4, Christel Brunschwig 5,6,7, Mathew Njoroge 5,6,7, Nina Lawrence 6, Lubbe Wiesner 7, Kelly Chibale 5,6,8,9, and Christo […]
1 Biomedical Research and Innovation Platform, South African Medical Research Council, Tygerberg, Cape Town, 7130, South Africa; johan.louw@mrc.ac.za (J.L.); christo.muller@mrc.ac.za (C.M.) 2 Plant Bioactives Group, Post-Harvest and Wine Technology Division, Agricultural Research Council, Infruitec-Nietvoorbij, Stellenbosch 7600, South Africa; JoubertL@arc.agric.za (E.J.); DBeerD@arc.agric.za […]
3 Department of Food Science, Stellenbosch University, Stellenbosch 7600, South Africa 4 Department of Biochemistry and Microbiology, University of Zululand, Kwa-Dlangezwa 3886, South […]
Caco-2 cells was assessed by the VialightTM plus kit. Caco-2 cells were seeded at a density of 4 x 10^4 cells/cm2 into white clear bottomed 96-well plates and cytotoxicity was assessed according to the manufacturer’s recommendation after 12–13 days. […]

[2] = Lipophilicity, LogD7.4 (n-octanol / phosphate buffer shake flask); type: physicochemical; details: phosphate buffer pH 7.4 / n-octanol
Experimental: For determination of the lipophilicity of aspalathin, a 10 mM stock solution prepared in DMSO was used to spike (100 µM) a 1:1 mixture of phosphate buffer (pH 7.4) and n-octanol. The solutions were shaken vigorously (1500 rpm) on an orbital shaker for 4 h at room temperature. Thereafter, the samples were centrifuged (3500 rpm, 2700× g) in order to fully separate the two immiscible fluids. The samples analysed using HPLC-DAD (Agilent 1200 Rapid Resolution HPLC) and the partition coefficient, LogD7.4 calculated.

[3] = target: PgP (Homo sapiens, UniProt P08183); details: aspalathin 100 µM; 100 µM verapamil (PgP)
Chain of PgP (P08183 whole entry): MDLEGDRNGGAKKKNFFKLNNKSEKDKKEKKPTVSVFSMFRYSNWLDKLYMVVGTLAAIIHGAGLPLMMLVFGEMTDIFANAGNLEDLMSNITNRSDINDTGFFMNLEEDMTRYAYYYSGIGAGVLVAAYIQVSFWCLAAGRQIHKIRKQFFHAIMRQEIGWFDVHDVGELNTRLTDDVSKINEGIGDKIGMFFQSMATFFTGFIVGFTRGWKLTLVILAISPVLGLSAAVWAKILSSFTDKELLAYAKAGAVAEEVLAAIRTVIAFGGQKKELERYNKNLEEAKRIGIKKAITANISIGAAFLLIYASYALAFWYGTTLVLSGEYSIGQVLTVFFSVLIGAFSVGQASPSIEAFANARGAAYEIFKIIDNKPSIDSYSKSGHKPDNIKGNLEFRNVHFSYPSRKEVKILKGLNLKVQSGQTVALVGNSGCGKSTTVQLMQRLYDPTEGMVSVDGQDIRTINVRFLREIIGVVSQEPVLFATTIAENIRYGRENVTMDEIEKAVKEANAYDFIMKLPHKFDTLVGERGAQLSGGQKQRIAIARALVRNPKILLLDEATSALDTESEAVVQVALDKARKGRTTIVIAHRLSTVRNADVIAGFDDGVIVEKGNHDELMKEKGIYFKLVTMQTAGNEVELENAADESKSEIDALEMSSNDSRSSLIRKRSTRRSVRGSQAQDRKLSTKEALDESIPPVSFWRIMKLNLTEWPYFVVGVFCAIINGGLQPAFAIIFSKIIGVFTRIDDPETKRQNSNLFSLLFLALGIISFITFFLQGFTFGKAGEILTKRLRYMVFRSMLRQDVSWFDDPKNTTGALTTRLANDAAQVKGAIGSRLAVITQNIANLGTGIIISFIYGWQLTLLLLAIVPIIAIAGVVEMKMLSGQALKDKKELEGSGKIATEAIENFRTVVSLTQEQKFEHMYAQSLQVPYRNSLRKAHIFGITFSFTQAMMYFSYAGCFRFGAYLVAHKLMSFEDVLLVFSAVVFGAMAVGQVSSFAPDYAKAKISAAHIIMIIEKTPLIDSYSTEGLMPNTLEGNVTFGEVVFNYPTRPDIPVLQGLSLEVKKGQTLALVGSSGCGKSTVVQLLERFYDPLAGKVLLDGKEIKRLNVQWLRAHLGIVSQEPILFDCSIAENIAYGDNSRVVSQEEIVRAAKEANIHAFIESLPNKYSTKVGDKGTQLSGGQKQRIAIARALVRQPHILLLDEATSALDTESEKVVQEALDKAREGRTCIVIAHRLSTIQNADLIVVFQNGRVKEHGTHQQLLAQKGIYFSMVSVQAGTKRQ
Experimental: (§1) The cell monolayers were equilibrated briefly with transport buffer, pH 6.0 (HBSS with 2-(N-morpholino) ethanesulphonic acid (MES)) on the apical side and pH 7.4 (HBSS with HEPES) on the basolateral side, to remove traces of the culture media. Following this, transport buffers were added for 30 min prior to the addition of treatment (inhibitors were added during this step when required, as well as during the subsequent treatment incubation step). After equilibration, the plates containing transport medium were incubated for 30 min at 37 °C at 5% CO2 in 95% humidified air and the TEER value of the monolayer determined. […] For basolateral-to-apical compartment studies, 2.4 mL of treatment at the same concentrations in HBSS (pH 7.4), was added to the basolateral compartment.
(§2) To assess whether aspalathin was co-transported with glucose, its transport (100 µM) at both high (20.5 mM) and low (5.5 mM) glucose concentrations, mimicking the intestinal lumen glucose concentrations pre- and post-meals, was monitored. This was followed by experiments performed in the presence and absence of SGLT1 (100 µM phloridzin), GLUT2 (100 µM phloretin) and efflux, PgP (100 µM verapamil) inhibitors.
(§3) Samples (1.2 mL) were withdrawn from the basolateral or the apical compartment to measure the concentration of aspalathin uptake and efflux, respectively at 0, 0.5, 1, 1.5, and 2 h under sink conditions (the sample aliquot replaced with equal volume of relevant transport buffer). Sample aliquots (350 µL) were frozen in liquid nitrogen after the addition of ascorbic acid (35 µL of 10% solution) and stored at −65 °C until HPLC analysis. Results were corrected for dilution and expressed as cumulative transport (% of initial dose) as a function of time. Papp (cm/s) for bi-directional transport studies was calculated as previously described. Transport of other major flavonoids in the matrices, i.e., nothofagin, the 3-deoxy analogue of aspalathin and its flavone derivatives, orientin and isoorientin, were also determined.

[4] = target: T1, SGLT1 (Homo sapiens, UniProt P13866); details: aspalathin 100 µM; 100 µM phloridzin (SGLT1)
T1 sequence (P13866 1-664): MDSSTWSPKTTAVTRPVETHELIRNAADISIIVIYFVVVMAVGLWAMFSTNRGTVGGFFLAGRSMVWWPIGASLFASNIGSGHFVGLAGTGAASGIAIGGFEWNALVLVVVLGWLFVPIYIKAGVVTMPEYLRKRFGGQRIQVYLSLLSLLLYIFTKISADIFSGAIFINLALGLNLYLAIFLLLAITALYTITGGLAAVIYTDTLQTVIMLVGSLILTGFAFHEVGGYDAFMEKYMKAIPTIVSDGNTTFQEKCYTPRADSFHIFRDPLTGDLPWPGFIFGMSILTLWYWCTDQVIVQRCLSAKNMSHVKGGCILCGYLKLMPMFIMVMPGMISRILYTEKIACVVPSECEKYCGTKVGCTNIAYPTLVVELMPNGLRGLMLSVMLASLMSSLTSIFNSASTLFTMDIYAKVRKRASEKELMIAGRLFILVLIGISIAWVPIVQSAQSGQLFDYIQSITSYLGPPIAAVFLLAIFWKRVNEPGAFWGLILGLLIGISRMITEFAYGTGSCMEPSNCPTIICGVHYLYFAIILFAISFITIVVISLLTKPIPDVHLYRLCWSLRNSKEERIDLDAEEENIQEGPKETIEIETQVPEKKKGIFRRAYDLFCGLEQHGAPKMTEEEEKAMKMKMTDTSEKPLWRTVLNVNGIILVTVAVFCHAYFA
Experimental: as §1, §2, §3

[5] = Stability of aspalathin (in SB1) in water and HEPES buffer; type: physicochemical; details: 2 h incubation, aspalathin in extract SB1

O=C(CCc1ccc(O)c(O)c1)c1c(O)cc(O)c([C@@H]2O[C@H](CO)[C@@H](O)[C@H](O)[C@H]2O)c1O [Aspalathin]
maximum concentration not cytotoxic to Caco-2 cells (>80% viability) [1]: 150 µM | Log D at pH 7.4 [2]: 0.13 | Efflux Ratio + Inhibitor (verapamil) [3]: 1.1 ^c | Papp a-b + Inhibitor (verapamil) [3]: 1.84 ± 0.20 ^c ×10^−6 cm/s | Papp b-a + Inhibitor (verapamil) [3]: 1.94 ± 0.68 ^c ×10^−6 cm/s | Efflux Ratio + Inhibitor (phloridzin) [4]: 0.99 ^c | Papp a-b + Inhibitor (phloridzin) [4]: 1.47 ± 1.10 ^c ×10^−6 cm/s | Papp b-a + Inhibitor (phloridzin) [4]: 1.47 ± 0.9 ^c ×10^−6 cm/s | percentage aspalathin degradation ([5]; HEPES buffer pH 6): 10% | percentage aspalathin degradation ([5]; HEPES buffer pH 7.4): 11% | percentage aspalathin degradation ([5]; deionised water): 1%
